“And” between values parts separate entries of the source, which are not always exact repeats. Equal entries are not always repeated.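 Cultured in 96-well plates, cells were exposed to test compound for 48 hours across five concentrations. The concentration for 50% growth inhibition is given as GI50. Definition used: TGI = concentration required for complete inhibition of growth.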 Bounds are passed on as bounds.

A word on the GI50: it is the concentration that inhibits growth by half. For orientation: TGI means the concentration giving total growth inhibition.

Among the test systems are A498 renal; BT-549 breast; HS 578T breast; NCI-H23 lung; OVCAR-5 ovarian; SK-MEL-2 melanoma; SNB-75 CNS.
Test in all cases: DTP human tumour cell line panel, 48 h

As for `COc1ccc(/C=C\c2cc(OC)c(OC)c(OC)c2)c(NS(=O)(=O)c2ccc(C)cc2)c1O`, the GI50 in the assay on A498 renal is 0.022 µM; with BT-549 breast it was 0.035 µM; in the assay on HS 578T breast, 0.0483 µM; with NCI-H23 lung, 0.0451 µM; in the assay with OVCAR-5 ovarian it was 0.15 µM; with SK-MEL-2 melanoma, 1.45 µM. The GI50 in the assay with SNB-75 CNS was 0.0304 µM. The TGI with A498 renal is 0.0805 µM; with BT-549 breast it was 3.04 µM; in the assay on HS 578T breast, more than 100 µM; with NCI-H23 lung it was 49.6 µM; in the assay with OVCAR-5 ovarian it was more than 100 µM; with SK-MEL-2 melanoma it was more than 100 µM. The compound further had a TGI in the assay on SNB-75 CNS of more than 100 µM.

In the case of `CC[C@H](C)[C@H](NC(=O)C12C3C4C1C1C2C3C41NC(C)=O)C(=O)N(C)[C@H](C[C@@H](OC(C)=O)c1nc(C(=O)N[C@@H](Cc2ccccc2)C[C@H](C)C(=O)OC)cs1)C(C)C` (some centres undefined), the GI50 was 0.503 µM with A498 renal; 0.146 µM in the assay with BT-549 breast; 0.468 µM in the assay on HS 578T breast; 0.884 µM in the assay on NCI-H23 lung; 3.97 µM in the assay with OVCAR-5 ovarian; 0.162 µM in the assay on SK-MEL-2 melanoma. For the same compound, the GI50 with SNB-75 CNS was 0.109 µM. The TGI in the assay with A498 renal is 10.2 µM; in the assay on BT-549 breast, 3.84 µM; in the assay with HS 578T breast it was more than 14.3 µM; in the assay on NCI-H23 lung, more than 14.3 µM; with OVCAR-5 ovarian it was more than 14.3 µM; with SK-MEL-2 melanoma, more than 14.3 µM. In the assay on SNB-75 CNS, this compound displayed a TGI of more than 14.3 µM.

`COc1cc(C2C(C#N)=C(N)OC3=C2C(=O)c2ccccc2C3=O)cc(OC)c1OC` (centres undefined): the GI50 with A498 renal is 0.327 µM; with BT-549 breast, 1.43 µM; in the assay with HS 578T breast, 0.382 µM; in the assay on NCI-H23 lung it was 0.713 µM; with OVCAR-5 ovarian it was 4.26 µM; in the assay with SK-MEL-2 melanoma it was 0.998 µM. Also, in the assay on SNB-75 CNS, the GI50 was 0.293 µM. For the same compound, the TGI with A498 renal came out at 11.8 µM; with BT-549 breast it was 18.5 µM; in the assay with HS 578T breast, 49.3 µM; in the assay with NCI-H23 lung it was 4.34 µM; in the assay on OVCAR-5 ovarian it was 18.6 µM; with SK-MEL-2 melanoma, 19.2 µM. In addition, the TGI in the assay on SNB-75 CNS was 25.1 µM.

Turning to `COc1ccc(NC(=O)c2cc(OC)c(OC)c(OC)c2)cc1O`, the GI50 in the assay with A498 renal was 2.73 µM; in the assay on BT-549 breast, 21.7 µM; with NCI-H23 lung, 5.32 µM; with OVCAR-5 ovarian, 40.1 µM; in the assay on SK-MEL-2 melanoma, 2.58 µM; in the assay on SNB-75 CNS, 1.56 µM. Moreover, the TGI in the assay on A498 renal was 32.9 µM; in the assay on BT-549 breast, more than 100 µM; in the assay with NCI-H23 lung it was more than 100 µM; in the assay on OVCAR-5 ovarian, more than 100 µM; in the assay on SK-MEL-2 melanoma, more than 100 µM; with SNB-75 CNS it was more than 100 µM.

With `Cn1cnc([N+](=O)[O-])c1Sc1ncnc2c1ncn2C1OC(CO)C(O)C1O` (centres undefined), the GI50 in the assay with A498 renal was 2.36 µM; with BT-549 breast, more than 100 µM; in the assay on HS 578T breast it was 27.8 µM; in the assay with NCI-H23 lung, 4.8 µM; in the assay on OVCAR-5 ovarian, 42 µM; with SK-MEL-2 melanoma, 8.9 µM. For the same compound, the GI50 with SNB-75 CNS is 27.7 µM. Moreover, the TGI with A498 renal, in the assay with BT-549 breast, in the assay with HS 578T breast, in the assay on NCI-H23 lung, in the assay on OVCAR-5 ovarian and in the assay on SK-MEL-2 melanoma was more than 100 µM throughout. For the same compound, the TGI in the assay with SNB-75 CNS is more than 100 µM.

Turning to `CN(C)c1ccc(/C=C/c2ccnc3ccccc23)cc1`, the GI50 with A498 renal was 4.03 µM; in the assay on BT-549 breast, 1.88 µM; in the assay on HS 578T breast, 3.67 µM; with NCI-H23 lung it was 3.83 µM; in the assay with OVCAR-5 ovarian it was 6.9 µM; with SK-MEL-2 melanoma it was 26.2 µM. Moreover, in the assay on SNB-75 CNS, the GI50 is 2.41 µM. Moreover, the TGI with A498 renal was > 100 µM and 24.8 µM; in the assay on BT-549 breast, > 100 µM and 14.6 µM; in the assay with HS 578T breast, 57 µM and > 30.1 µM; in the assay on NCI-H23 lung, > 100 µM and 23 µM; in the assay with OVCAR-5 ovarian it was > 100 µM and 49.6 µM; in the assay with SK-MEL-2 melanoma it was more than 100 µM. Besides, in the assay on SNB-75 CNS, the TGI is > 100 µM and 11.9 µM.

`C[Se]C(=O)CC1=C2C=C(F)C=CC2/C(=C\c2ccc(S(C)=O)cc2)C1C` (centres undefined): the GI50 is 0.0422 µM with A498 renal; 0.0581 µM in the assay on BT-549 breast; 0.0886 µM in the assay with HS 578T breast; 0.065 µM in the assay on NCI-H23 lung; 0.114 µM with OVCAR-5 ovarian; 0.432 µM in the assay on SK-MEL-2 melanoma. In the assay on SNB-75 CNS, the GI50 was less than 0.01 µM. The TGI with A498 renal turned out to be 0.192 µM; in the assay with BT-549 breast, 0.266 µM; in the assay on HS 578T breast, 2.36 µM; in the assay with NCI-H23 lung it was 1.03 µM; with OVCAR-5 ovarian, 1.49 µM; in the assay on SK-MEL-2 melanoma it was 3.04 µM. In the assay on SNB-75 CNS, this compound yielded a TGI of less than 0.036 µM.

On to `FC(F)(F)c1ccc(-c2cnc(Br)nc2NC2CCCCCC2)cc1`, for which the GI50 in the assay with A498 renal was 40 µM; in the assay on BT-549 breast, 72.9 µM; in the assay on HS 578T breast, more than 100 µM; with NCI-H23 lung it was 32.9 µM; in the assay with OVCAR-5 ovarian, more than 100 µM; in the assay with SNB-75 CNS, more than 100 µM. The concentration for total growth inhibition (TGI) in the assay with A498 renal, with BT-549 breast, in the assay with HS 578T breast, with NCI-H23 lung, with OVCAR-5 ovarian and in the assay on SNB-75 CNS was more than 100 µM throughout.

Turning to `COc1ccc(C(Nc2ncccn2)c2cc3c(cc2O)OCO3)cc1` (centres undefined), the TGI was more than 100 µM in the assay on A498 renal; 64.3 µM in the assay on BT-549 breast; 52.4 µM in the assay on HS 578T breast; 35.3 µM in the assay on NCI-H23 lung; 69.6 µM in the assay with OVCAR-5 ovarian; 46.9 µM with SK-MEL-2 melanoma. The TGI in the assay on SNB-75 CNS was determined as 22.7 µM.

With `COc1ccc2c(c1)OC13Oc4cc(OC)ccc4C=C1CCCC3=C2`, the GI50 in the assay on A498 renal, in the assay with BT-549 breast, in the assay with HS 578T breast, in the assay on NCI-H23 lung, in the assay on OVCAR-5 ovarian and with SK-MEL-2 melanoma was more than 100 µM each time. The TGI in the assay with A498 renal, with BT-549 breast, with HS 578T breast, with NCI-H23 lung, in the assay on OVCAR-5 ovarian and in the assay with SK-MEL-2 melanoma was more than 100 µM in each case.

Regarding `CN(Cc1cnc2nc(N)nc(N)c2n1)c1ccc(C(=O)NC(CCC(=O)O)C(=O)O)cc1` (centres undefined), the TGI in the assay on A498 renal, with BT-549 breast, with HS 578T breast, with NCI-H23 lung, in the assay with OVCAR-5 ovarian and with SK-MEL-2 melanoma was more than 100 µM each time. In addition, in the assay with SNB-75 CNS, the TGI was more than 100 µM. The GI50 in the assay with BT-549 breast is 6.51 µM; in the assay with HS 578T breast it was more than 100 µM; in the assay on NCI-H23 lung, 0.354 µM; with OVCAR-5 ovarian, 0.668 µM; with SNB-75 CNS, more than 100 µM.

For the origin of these results see PubChem BioAssay (NCI).
